Source: US11135234B2, “Effective aminoglycoside antibiotic for multidrug-resistant bacteria” (MICROBIAL CHEMISTRY RESEARCH FOUNDATION, priority 2015, dated 2021)
Values after ≈ are worked out from the molar mass of the structure shown.

Legend:
S. aureus RN4220 = experiment: MIC, agar plate dilution method, S. aureus RN4220; assay type: cell-based, Staphylococcus aureus; details: for MIC: Staphylococcus aureus, RN4220, S. aureus RN4220, Sensitive bacterium, read-out: minimal inhibitory concentration (MIC)
In short: (§1)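 Minimal inhibitory concentration (μg/mL) was determined by agar plate dilution following the Japan Society of Chemotherapy method.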

[1] = test system: A. baumannii ATCC BAA-1710; experiment: MIC, agar plate dilution method, A. baumannii ATCC BAA-1710; assay type: cell-based, Acinetobacter baumannii; details: for MIC: Acinetobacter baumannii, ATCCBAA1710, A. baumannii ATCC BAA-1710, MDRA, read-out: minimal inhibitory concentration (MIC)
In short: as §1

E. faecium ATCC19434 = experiment: MIC, agar plate dilution method, E. faecium ATCC19434; assay type: cell-based, Enterococcus faecium; details: for MIC: Enterococcus faecium, ATCC19434, E. faecium ATCC19434, read-out: minimal inhibitory concentration (MIC)
In short: as §1

P. aeruginosa MSC17707 = experiment: MIC, agar plate dilution method, P. aeruginosa MSC17707; assay type: cell-based, Pseudomonas aeruginosa; details: for MIC: Pseudomonas aeruginosa, MSC17707, P. aeruginosa MSC17707, AMK-resistant, read-out: minimal inhibitory concentration (MIC)
In short: as §1

S. marcescens GN6944 = experiment: MIC, agar plate dilution method, S. marcescens GN6944; assay type: cell-based, Serratia marcescens; details: S. marcescens GN6944, GM-resistant; for MIC: Serratia marcescens, read-out: minimal inhibitory concentration (MIC)
In short: as §1

P. aeruginosa MSC01035 = experiment: MIC, agar plate dilution method, P. aeruginosa MSC01035; assay type: cell-based, Pseudomonas aeruginosa; details: P. aeruginosa MSC01035, ABK-resistant; for MIC: Pseudomonas aeruginosa, read-out: minimal inhibitory concentration (MIC)
In short: as §1

[2] = test system: K. pneumoniae ATCC BAA-2146; experiment: MIC, agar plate dilution method, K. pneumoniae ATCC BAA-2146; assay type: cell-based, Klebsiella pneumoniae; details: for MIC: Klebsiella pneumoniae, ATCCBAA2146, K. pneumoniae ATCC BAA-2146, NDM-producing strain, read-out: minimal inhibitory concentration (MIC)
In short: as §1

[3] = test system: K. pneumoniae ATCC BAA-1705; experiment: MIC, agar plate dilution method, K. pneumoniae ATCC BAA-1705; assay type: cell-based, Klebsiella pneumoniae; details: for MIC: Klebsiella pneumoniae, ATCCBAA1705, K. pneumoniae ATCC BAA-1705, KPC-producing strain, read-out: minimal inhibitory concentration (MIC)
In short: as §1

S. aureus MF490 = experiment: MIC, agar plate dilution method, S. aureus MF490; assay type: cell-based, Staphylococcus aureus; details: for MIC: Staphylococcus aureus, MRSA, read-out: minimal inhibitory concentration (MIC)
In short: as §1

E. coli JM109/pMW218 = experiment: MIC, agar plate dilution method, E. coli JM109/pMW218; assay type: cell-based, Escherichia coli; details: for MIC: Escherichia coli, JM109/PMW218, E. coli JM109/pMW218, Sensitive bacterium, read-out: minimal inhibitory concentration (MIC)
In short: as §1

P. aeruginosa PAO1/GN315 = experiment: MIC, agar plate dilution method, P. aeruginosa PAO1/GN315; assay type: cell-based, Pseudomonas aeruginosa; details: for MIC: Pseudomonas aeruginosa, read-out: minimal inhibitory concentration (MIC), P. aeruginosa PAO1/GN315, AMK-resistant
In short: as §1

S. marcescens TH-0447 = experiment: MIC, agar plate dilution method, S. marcescens TH-0447; assay type: cell-based, Serratia marcescens; details: for MIC: Serratia marcescens, TH0447, S. marcescens TH-0447, AMK-resistant, read-out: minimal inhibitory concentration (MIC)
In short: as §1

P. aeruginosa PAO1 = experiment: MIC, agar plate dilution method, P. aeruginosa PAO1; assay type: cell-based, Pseudomonas aeruginosa; details: for MIC: Pseudomonas aeruginosa, PAO1, P. aeruginosa PAO1, Sensitive bacterium, read-out: minimal inhibitory concentration (MIC)
In short: as §1

S. aureus RN4220/pMS520 = experiment: MIC, agar plate dilution method, S. aureus RN4220/pMS520; assay type: cell-based, Staphylococcus aureus; details: for MIC: Staphylococcus aureus, MRSA, read-out: minimal inhibitory concentration (MIC), S. aureus RN4220/pMS520, MRSA
In short: as §1

Row | SMILES | MIC (S. aureus RN4220) | MIC [1] | MIC (E. faecium ATCC19434) | MIC (P. aeruginosa MSC17707) | MIC (S. marcescens GN6944) | MIC (P. aeruginosa MSC01035) | MIC [2] | MIC [3] | MIC (S. aureus MF490) | MIC (E. coli JM109/pMW218) | MIC (P. aeruginosa PAO1/GN315) | MIC (S. marcescens TH-0447) | MIC (P. aeruginosa PAO1) | MIC (S. aureus RN4220/pMS520) | other results
1 | CNC1C(O[C@H]2OC(CO)[C@@H](NC(=N)N)[C@H](O)C2O)O[C@H]2CC(N)[C@@H](O[C@@H]3C(N)C[C@@H](N)C[C@H]3O)OC2C1O (stereo partly drawn) [Compound S1-o, 4″-deamino-6-deoxy-5-epi-4″-guanidinoapramycin] | 1 µg/mL (≈ 1.77 µM) | 4 µg/mL (≈ 7.07 µM) | 8 µg/mL (≈ 14.1 µM) | 4 µg/mL (≈ 7.07 µM) | 2 µg/mL (≈ 3.54 µM) | 4 µg/mL (≈ 7.07 µM) | 0.5 µg/mL (≈ 0.884 µM) | 1 µg/mL (≈ 1.77 µM) | 2 µg/mL (≈ 3.54 µM) | 0.5 µg/mL (≈ 0.884 µM) | 4 µg/mL (≈ 7.07 µM) | 4 µg/mL (≈ 7.07 µM) | 2 µg/mL (≈ 3.54 µM) | 1 µg/mL (≈ 1.77 µM) | –
2 | CNC1C(O[C@H]2OC(C)[C@@H](NC(CN)CN)[C@H](O)C2O)O[C@H]2CC(N)[C@@H](O[C@H]3CC(O)[C@H](N)CC3N)OC2C1O (stereo partly drawn) [Compound S1-p, 4″-N-(1,3-diaminopropan-2-yl)-5,6″-dideoxyapramycin] | 1 µg/mL (≈ 1.73 µM) | 8 µg/mL (≈ 13.8 µM) | 4 µg/mL (≈ 6.9 µM) | 4 µg/mL (≈ 6.9 µM) | 4 µg/mL (≈ 6.9 µM) | 4 µg/mL (≈ 6.9 µM) | 1 µg/mL (≈ 1.73 µM) | 1 µg/mL (≈ 1.73 µM) | 2 µg/mL (≈ 3.45 µM) | 1 µg/mL (≈ 1.73 µM) | 4 µg/mL (≈ 6.9 µM) | 8 µg/mL (≈ 13.8 µM) | 2 µg/mL (≈ 3.45 µM) | 1 µg/mL (≈ 1.73 µM) | –
3 | CNC1C(O[C@H]2OC(C)[C@@H](NC(=N)N)[C@H](O)C2O)O[C@H]2CC(N)[C@@H](O[C@H]3CC(O)[C@H](N)CC3N)OC2C1O (stereo partly drawn) [Compound S1-q, 4″-deamino-5,6″-dideoxy-4″-guanidinoapramycin] | 1 µg/mL (≈ 1.82 µM) | 16 µg/mL (≈ 29.1 µM) | 4 µg/mL (≈ 7.28 µM) | 8 µg/mL (≈ 14.6 µM) | 4 µg/mL (≈ 7.28 µM) | 8 µg/mL (≈ 14.6 µM) | 0.5 µg/mL (≈ 0.91 µM) | 1 µg/mL (≈ 1.82 µM) | 4 µg/mL (≈ 7.28 µM) | 0.5 µg/mL (≈ 0.91 µM) | 8 µg/mL (≈ 14.6 µM) | 4 µg/mL (≈ 7.28 µM) | 4 µg/mL (≈ 7.28 µM) | 1 µg/mL (≈ 1.82 µM) | –
4 | CN[C@@H]1[C@@H](O[C@H]2O[C@H](CO)[C@@H](NC)[C@H](O)[C@H]2O)O[C@H]2C[C@@H](N)[C@@H](O[C@H]3CC[C@H](N)C[C@@H]3N)O[C@@H]2[C@@H]1O [Compound T2-a, 5,6-dideoxy-4″-N-methylapramycin] | – | – | – | – | – | – | – | – | – | – | – | – | – | – | minimal inhibitory concentration (MIC) (S. aureus RN4220; S. aureus RN4220, Sensitive bacterium): 2 µg/mL (≈ 3.83 µM); minimal inhibitory concentration (MIC) ([1]; A. baumannii ATCC BAA-1710, MDRA): 4 µg/mL (≈ 7.67 µM); minimal inhibitory concentration (MIC) (E. faecium ATCC19434; E. faecium ATCC19434): 8 µg/mL (≈ 15.3 µM); minimal inhibitory concentration (MIC) (P. aeruginosa MSC17707; P. aeruginosa MSC17707, AMK-resistant): 4 µg/mL (≈ 7.67 µM); minimal inhibitory concentration (MIC) (S. marcescens GN6944): 4 µg/mL (≈ 7.67 µM); minimal inhibitory concentration (MIC) (P. aeruginosa MSC01035): 4 µg/mL (≈ 7.67 µM); minimal inhibitory concentration (MIC) ([2]; K. pneumoniae ATCC BAA-2146, NDM-producing strain): 1 µg/mL (≈ 1.92 µM); minimal inhibitory concentration (MIC) ([3]; K. pneumoniae ATCC BAA-1705, KPC-producing strain): 1 µg/mL (≈ 1.92 µM); minimal inhibitory concentration (MIC) (S. aureus MF490; S. aureus MF490, MRSA): 8 µg/mL (≈ 15.3 µM); minimal inhibitory concentration (MIC) (E. coli JM109/pMW218; E. coli JM109/pMW218, Sensitive bacterium): 0.5 µg/mL (≈ 0.959 µM); minimal inhibitory concentration (MIC) (P. aeruginosa PAO1/GN315; P. aeruginosa PAO1/GN315, AMK-resistant): 4 µg/mL (≈ 7.67 µM); minimal inhibitory concentration (MIC) (S. marcescens TH-0447; S. marcescens TH-0447, AMK-resistant): 4 µg/mL (≈ 7.67 µM); minimal inhibitory concentration (MIC) (P. aeruginosa PAO1; P. aeruginosa PAO1, Sensitive bacterium): 4 µg/mL (≈ 7.67 µM); minimal inhibitory concentration (MIC) (S. aureus RN4220/pMS520; S. aureus RN4220/pMS520, MRSA): 1 µg/mL (≈ 1.92 µM)
5 | CNC1C(O[C@H]2OC(CO)[C@@H](NCCN)[C@H](O)C2O)O[C@H]2CC(N)[C@@H](O[C@H]3CC[C@H](N)CC3N)OC2C1O (stereo partly drawn) [Compound T2-b, 4″-N-(2-aminoethyl)-5,6-dideoxyapramycin] | 4 µg/mL (≈ 7.26 µM) | 8 µg/mL (≈ 14.5 µM) | 16 µg/mL (≈ 29.1 µM) | 8 µg/mL (≈ 14.5 µM) | 8 µg/mL (≈ 14.5 µM) | 16 µg/mL (≈ 29.1 µM) | 2 µg/mL (≈ 3.63 µM) | 2 µg/mL (≈ 3.63 µM) | 8 µg/mL (≈ 14.5 µM) | 1 µg/mL (≈ 1.82 µM) | 8 µg/mL (≈ 14.5 µM) | 8 µg/mL (≈ 14.5 µM) | 8 µg/mL (≈ 14.5 µM) | 4 µg/mL (≈ 7.26 µM) | –
6 | CNC1C(O[C@H]2OC(CO)[C@@H](NCCCN)[C@H](O)C2O)O[C@H]2CC(N)[C@@H](O[C@H]3CC[C@H](N)CC3N)OC2C1O (stereo partly drawn) [Compound T2-c, 4″-N-(3-aminopropyl)-5,6-dideoxyapramycin] | 2 µg/mL (≈ 3.54 µM) | 4 µg/mL (≈ 7.08 µM) | 8 µg/mL (≈ 14.2 µM) | 4 µg/mL (≈ 7.08 µM) | 4 µg/mL (≈ 7.08 µM) | 8 µg/mL (≈ 14.2 µM) | 1 µg/mL (≈ 1.77 µM) | 1 µg/mL (≈ 1.77 µM) | 8 µg/mL (≈ 14.2 µM) | 1 µg/mL (≈ 1.77 µM) | 4 µg/mL (≈ 7.08 µM) | 8 µg/mL (≈ 14.2 µM) | 4 µg/mL (≈ 7.08 µM) | 2 µg/mL (≈ 3.54 µM) | –
